# Data published in publication PMC6685790 (Nature structural & molecular biology, 2008).
# Changes are numbered by the printed parent chain.
# Assays:
# [1] = molecular target: T1, GlyR α1^F108A (Homo sapiens, UniProt P23415, F136A); format: cell-based; conditions: α1^F108A
# T1 sequence (P23415 29-457 F136A): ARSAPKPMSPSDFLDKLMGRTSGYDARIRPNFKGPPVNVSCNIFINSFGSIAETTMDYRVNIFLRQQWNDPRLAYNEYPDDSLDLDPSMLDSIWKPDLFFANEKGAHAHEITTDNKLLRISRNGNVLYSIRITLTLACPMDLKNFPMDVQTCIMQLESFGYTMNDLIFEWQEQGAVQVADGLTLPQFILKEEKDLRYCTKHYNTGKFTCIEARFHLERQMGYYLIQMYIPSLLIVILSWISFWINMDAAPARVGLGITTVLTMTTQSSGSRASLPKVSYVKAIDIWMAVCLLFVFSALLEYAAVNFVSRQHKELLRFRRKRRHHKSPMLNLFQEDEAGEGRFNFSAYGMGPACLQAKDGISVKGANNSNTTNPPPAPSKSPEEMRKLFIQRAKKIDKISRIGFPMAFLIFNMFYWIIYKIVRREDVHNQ
# [2] = molecular target: T2, GlyR α1^L64A (Homo sapiens, UniProt P23415, L92A); assay: Whole-cell recording of substituted GlyR in HEK cells; format: cell-based
# T2 sequence (P23415 29-457 L92A): T1 sequence (P23415 29-457 F136A) with L64A, A108F
# [3] = molecular target: T3, GlyR α1^L117A (Homo sapiens, UniProt P23415, L145A); assay: as above; format: cell-based
# T3 sequence (P23415 29-457 L145A): T1 sequence (P23415 29-457 F136A) with A108F, L117A
# [4] = molecular target: GlyR α1 F99L (Homo sapiens, UniProt P23415, F127L); assay: as above; format: cell-based; conditions: same cell
# [5] = molecular target: GlyR α1^F100Y (Homo sapiens, UniProt P23415, F128Y); assay: as above; format: cell-based; conditions: same cell
# [6] = molecular target: GlyR α1^L134A, D84A (Homo sapiens, UniProt P23415, D112A/L162A); assay: as above; format: cell-based
# [7] = molecular target: GlyR α1^L134A, D86A (Homo sapiens, UniProt P23415, D114A/L162A); assay: as above; format: cell-based
# [8] = molecular target: GlyR α1^L134A, D97A (Homo sapiens, UniProt P23415, D125A/L162A); assay: as above; format: cell-based
# [9] = system: Zn^2+-activated GlyRs (ZAGs); format: cell-based, human; conditions: substituted GlyRs, n = 5; close to ECl
# [10] = molecular target: GlyR α1^T112A (Homo sapiens, UniProt P23415, T140A); format: cell-based
# [11] = molecular target: GlyR α1^T113G (Homo sapiens, UniProt P23415, T141G); assay: Whole-cell recording of substituted GlyR in HEK cells; format: cell-based; conditions: α1^T113G vs WT
# [12] = molecular target: GlyR α1^D114G (Homo sapiens, UniProt P23415, D142G); assay: as above; format: cell-based; conditions: α1^D114G vs WT
# [13] = read-out: Zn^2+ Activation EC50, direct activation without glycine
# [14] = read-out: Zn^2+ Inhibition IC50, modulation of EC50 glycine currents
# [15] = maximal Zn^2+ response as percentage of maximal glycine response in same cell
# Sequence of GlyR α1^L134A, D86A (P23415 29-457 D114A/L162A): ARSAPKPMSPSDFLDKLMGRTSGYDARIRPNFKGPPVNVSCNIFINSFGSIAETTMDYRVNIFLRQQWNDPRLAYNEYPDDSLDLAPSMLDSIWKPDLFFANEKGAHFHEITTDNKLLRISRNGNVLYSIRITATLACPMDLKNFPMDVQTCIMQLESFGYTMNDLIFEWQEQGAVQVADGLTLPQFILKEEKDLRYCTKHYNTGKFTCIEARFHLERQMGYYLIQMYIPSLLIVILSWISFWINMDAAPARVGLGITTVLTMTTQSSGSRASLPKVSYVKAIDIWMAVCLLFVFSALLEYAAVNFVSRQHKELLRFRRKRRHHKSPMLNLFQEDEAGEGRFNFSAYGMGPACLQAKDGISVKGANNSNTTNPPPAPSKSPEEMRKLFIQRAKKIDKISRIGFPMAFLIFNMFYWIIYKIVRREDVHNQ
# Sequence of GlyR α1^L134A, D84A (P23415 29-457 D112A/L162A): as the sequence (P23415 29-457 D114A/L162A) above, with D84A, A86D counted along it
# Sequence of GlyR α1 F99L (P23415 29-457 F127L): as the sequence (P23415 29-457 D114A/L162A) above, with A86D, F99L, A134L counted along it
# Sequence of GlyR α1^L134A, D97A (P23415 29-457 D125A/L162A): as the sequence (P23415 29-457 D114A/L162A) above, with A86D, D97A counted along it
# Sequence of GlyR α1^F100Y (P23415 29-457 F128Y): as the sequence (P23415 29-457 D114A/L162A) above, with A86D, F100Y, A134L counted along it
# Sequence of GlyR α1^T112A (P23415 29-457 T140A): as the sequence (P23415 29-457 D114A/L162A) above, with A86D, T112A, A134L counted along it
# Sequence of GlyR α1^D114G (P23415 29-457 D142G): as the sequence (P23415 29-457 D114A/L162A) above, with A86D, D114G, A134L counted along it
# Sequence of GlyR α1^T113G (P23415 29-457 T141G): as the sequence (P23415 29-457 D114A/L162A) above, with A86D, T113G, A134L counted along it
smiles,measurement,setting,value
[Zn+2] [Zn^2+],EC50,[1]; [13],2.3 ± 0.6 µM
same,IC50,[1]; [14],> 1000 µM
same,Zn^2+ Activation nH,[1]; Hill slope,0.7 ± 0.1
same,Zn^2+ Activation Relative efficacy (% Gly Imax),[1]; [15],25 ± 6 % Gly Imax
same,Zn^2+ Activation nH,[2]; Hill slope,1.1 ± 0.4
same,Zn^2+ Activation Relative efficacy (% Gly Imax),[2]; [15],10 ± 3 % Gly Imax
same,EC50,[2]; [13],1.5 ± 1.3 µM
same,IC50,[2]; [14],70 ± 9 µM
same,Zn^2+ Activation EC50,[3]; direct activation without glycine,None
same,IC50,[3]; [14],13.3 ± 3.3 µM
same,Maximal Zn^2+ (1 mM)-activated current normalised to glycine Imax (10 mM),[4],< 2 % Gly Imax
same,Maximal Zn^2+ (1 mM)-activated current normalised to glycine Imax (10 mM),[5],< 2 % Gly Imax
same,Zn^2+ activation (normalised to Gly Imax),[6]; D84A,5 ± 1%
same,Increase of Zn^2+ activation EC50 relative to α1^L134A,[6]; D84A vs α1^L134A,120 fold
same,Zn^2+ activation (normalised to Gly Imax),[7]; D86A,2.4 ± 1.2%
same,Increase of Zn^2+ activation EC50 relative to α1^L134A,[7]; D86A vs α1^L134A,15 fold
same,Zn^2+ activation,[8],no detectable activation
same,Reversal potential of Zn^2+-activated currents,[9],0.4 ± 1.4 mV
same,Zn^2+ activation,[10],highly-sensitive and efficacious ZAG
"NCC(=O)O [Glycine, glycine]",Glycine Imax,[1],4.5 ± 0.5 nA
same,Glycine nH,[1]; Hill slope,2.3 ± 0.1
same,Glycine Imax,[2],5.6 ± 0.8 nA
same,Glycine nH,[2]; Hill slope,2 ± 0.6
same,Glycine Imax,[3],4.4 ± 0.7 nA
same,Glycine nH,[3]; Hill slope,1.67 ± 0.1
same,Increase in glycine sensitivity compared to WT,[11],3 fold
same,Increase in glycine sensitivity compared to WT,[12],3 fold
